Literature values in patent publication US6391342B1, “Pharmaceutical formulation comprising a 2- [(2-pyridinyl) methyl] sulfinyl benzimidazole having anti-ulcer activity and a process for the preparation of such formulation” (A/S GEA Farmaceutisk Fabrik, priority 1998, dated 2002).
Where two headings read alike, the source gives them in different places.

COc1ccc2[nH]c([S+]([O-])Cc3ncc(C)c(OC)c3C)nc2c1 (stereo not drawn) [omeprazole, 5-methoxy-2-[[(4-methoxy-3,5-dimethyl-2-pyridinyl)methyl]sulfinyl]-1H-benzimidazole]
stability to acids (acids): sensible to acids | solubility (in alkaline solutions): very soluble | solubility (in water): only slightly soluble
